Assay [1] concerns the target IDH1 R132H (Homo sapiens, UniProt O75874, R132H). Kind of assay: In vitro NADPH depletion assay for IDH1m R132H inhibitors. In kind it is biochemical. Particulars: enzyme, diaphorase/resazurin readout, read-out: IDH R132H IC50. On the procedure:
A test compound is prepared as 10 mM stock in DMSO and diluted to 50× final concentration in DMSO, for a 50 μl reaction mixture. IDH enzyme activity converting alpha-ketoglutarate to 2-hydroxyglutaric acid is measured using a NADPH depletion assay. In the assay the remaining cofactor is measured at the end of the reaction with the addition of a catalytic excess of diaphorase and resazurin, to generate a fluorescent signal in proportion to the amount of NADPH remaining. IDH1-R132 homodimer enzyme is diluted to […] in 40 μl of Assay Buffer(150 mM NaCl, 20 mM Tris-Cl pH 7.5, 10 mM MgCl2, 0.05% BSA, 2 mM b-mercaptoethanol); 1 μl of test compound dilution in DMSO is added and the mixture is incubated for 60 minutes at room temperature. The reaction is started with the addition of 10 μl of Substrate Mix ([…], 5 mM alpha-ketoglutarate, in Assay Buffer) and the mixture is incubated for 90 minutes at room temperature. The reaction is terminated with the addition of 25 μl of Detection Buffer (36 μg/ml diaphorase, […], in 1× Assay Buffer), and is incubated for 1 minute before reading on a SpectraMax platereader at Ex544/Em590.
Representative compounds of formula I set forth in Table 1 were tested in this assay and the results are set forth below in Table 3.

Assay [2] deals with HT1080 cells. Kind of assay: Cellular assay, inhibition of 2-HG production (LC-MS) in HT1080 cells. The note with it: Homo sapiens, HT-1080, 48 hours, LC-MS of media. The format is cell-based. How it is done:
Cells (HT1080 or U87MG) are grown in T125 flasks in DMEM containing 10% FBS, 1× penicillin/streptomycin and 500 ug/mL G418 (present in U87MG cells only). They are harvested by trypsin and seeded into 96 well white bottom plates at a density of 5000 cell/well in 100 μl/well in DMEM with 10% FBS. No cells are placed in columns 1 and 12. Cells are incubated overnight at 37° C. in 5% CO2. The next day test compounds are made up at 2× the final concentration and 100 μl are added to each cell well. The final concentration of DMSO is 0.2% and the DMSO control wells are plated in row G. The plates are then placed in the incubator for 48 hours. At 48 hours, 100 μl of media is removed from each well and analyzed by LC-MS for 2-HG concentrations. The cell plate is placed back in the incubator for another 24 hours. At 72 hours post compound addition, 10 mL/plate of Promega Cell Titer Glo reagent is thawed and mixed. The cell plate is removed from the incubator and allowed to equilibrate to room temperature. Then 100 μl of Promega Cell Titer Glo reagent is added to each well of media. The cell plate is then placed on an orbital shaker for 10 minutes and then allowed to sit at room temperature for 20 minutes. The plate is then read for luminescence with an integration time of 500 ms.
The IC50 for inhibition of 2-HG production (concentration of test compound to reduce 2HG production by 50% compared to control) in these two cell lines for various compounds of formula I is set forth in Table 2 above.

By IC50 is commonly meant the point on the concentration scale where inhibition reaches its midpoint.

Bounds are passed on as bounds.

IDH1 R132H, sequence (O75874 whole entry R132H): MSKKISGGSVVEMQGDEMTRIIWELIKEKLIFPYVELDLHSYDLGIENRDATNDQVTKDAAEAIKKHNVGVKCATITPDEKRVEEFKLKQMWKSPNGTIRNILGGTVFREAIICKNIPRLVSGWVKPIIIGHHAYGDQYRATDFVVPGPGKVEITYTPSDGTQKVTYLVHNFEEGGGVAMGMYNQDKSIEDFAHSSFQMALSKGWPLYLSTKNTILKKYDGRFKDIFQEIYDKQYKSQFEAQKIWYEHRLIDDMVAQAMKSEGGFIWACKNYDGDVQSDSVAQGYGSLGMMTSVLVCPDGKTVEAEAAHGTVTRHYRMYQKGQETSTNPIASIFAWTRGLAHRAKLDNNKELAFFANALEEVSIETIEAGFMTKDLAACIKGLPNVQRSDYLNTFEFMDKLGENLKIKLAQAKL

Consider `O=C(NC1CCCCC1)C(c1ccccc1Cl)N(C(=O)C1Cc2ccccc2N1)c1cccc(F)c1` (centres unmarked) [Compound 32], for which the half-inhibitory concentration (IC50) in assay [1] and in assay [2] was 100 to 500 nM throughout.

Turning to `O=C(NC1CCC(F)(F)CC1)C(c1ccccc1Cl)N(C(=O)Cn1cnc(Cl)c1Cl)c1cccc(F)c1` (centres unmarked) [Compound 33], the IC50 in assay [1] is not above 100 nM; in assay [2] it was 100 to 500 nM.

As to `COC(=O)N1CCC[C@H]1C(=O)N(c1cccc(F)c1)[C@H](C(=O)NC1CC(F)(F)C1)c1ccccc1Cl` [Compound 42, (S)-methyl 2-(((S)-1-(2-chlorophenyl)-2-((3,3-difluorocyclobutyl)amino)-2-oxoethyl)(3-fluorophenyl)carbamoyl)pyrrolidine-1-carboxylate], the figures for the concentration for half-maximal inhibition (IC50) in assay [1] and in assay [2] were not above 100 nM and 100 to 500 nM, respectively.

Take `O=C(NC1CCC(F)(F)CC1)C(c1ccccc1Cl)N(C(=O)Cn1cncn1)c1cccc(F)c1` (centres unmarked) [Compound 45]: the values for the concentration for half-maximal inhibition (IC50) in assay [1] and in assay [2] were 100 to 500 nM and 1000 to 2000 nM, respectively.

As to `O=C(NC1CCC(F)(F)CC1)C(c1ccccc1Cl)N(C(=O)Cn1ccnn1)c1cccc(F)c1` (centres unmarked) [Compound 46], the half-maximal inhibitory concentration (IC50) is 100 to 500 nM in assay [1] and 1000 to 2000 nM in assay [2].

As for `O=C(NC1CC(F)(F)C1)C(c1ccccc1Cl)N(C(=O)CNc1cccnc1F)c1cccc(F)c1` (centres unmarked) [Compound 47], the IC50 was not above 100 nM in assay [1] and 100 to 500 nM in assay [2].

For `COC(=O)N1C[C@H](O)C[C@H]1C(=O)N(c1cccc(F)c1)[C@H](C(=O)NC1CC(F)(F)C1)c1ccccc1Cl` [Compound 51], the results for the IC50 in assay [1] and in assay [2] were not above 100 nM and 500 to 1000 nM, respectively.

Turning to `COC(=O)N1C[C@@H](O)C[C@H]1C(=O)N(c1cccc(F)c1)[C@H](C(=O)NC1CC(F)(F)C1)c1ccccc1Cl` [Compound 52], the IC50 in assay [1] is not above 100 nM; in assay [2], 500 to 1000 nM.

On to `COC(=O)N1CCOC[C@H]1C(=O)N(c1cccc(F)c1)[C@H](C(=O)NC1CC(F)(F)C1)c1ccccc1Cl` [Compound 53], for which the figures for the IC50 in assay [1] and in assay [2] were not above 100 nM and 100 to 500 nM, respectively.

As for `COC(=O)N1COC[C@H]1C(=O)N(c1cccc(F)c1)[C@H](C(=O)NC1CC(F)(F)C1)c1ccccc1Cl` [Compound 54], the 50% inhibitory concentration (IC50) was not above 100 nM in assay [1] and 500 to 1000 nM in assay [2].

On to `COC(=O)N1C[C@H](F)C[C@H]1C(=O)N(c1cccc(F)c1)[C@H](C(=O)NC1CC(F)(F)C1)c1ccccc1Cl` [Compound 55, (2S,4R)-methyl 2-(((S)-1-(2-chlorophenyl)-2-((3,3-difluorocyclo-butyl)amino)-2-oxoethyl)(3-fluorophenyl)carbamoyl)-4-fluoropyrrolidine-1-carboxylate], for which the 50% inhibitory concentration (IC50) was not above 100 nM in assay [1] and 500 to 1000 nM in assay [2].

For the compound `COC(=O)N1CCC[C@H]1C(=O)N(c1cccc(S(N)(=O)=O)c1)[C@H](C(=O)NC1CCC(F)(F)CC1)c1ccccc1Cl` [Compound 57], the IC50 was in the range of 100 to 500 nM in assay [1] and 500 to 1000 nM in assay [2].

As to `COC(=O)N1CCNC[C@H]1C(=O)N(c1cccc(F)c1)[C@H](C(=O)NC1CC(F)(F)C1)c1ccccc1Cl` [Compound 62, (S)-Methyl 2-(((S)-1-(2-chlorophenyl)-2-(3,3-difluorocyclobutylamino)-2-oxoethyl) -(3-fluoro-phenyl)carbamoyl)piperazine-1-carboxylate], the results for the IC50 in assay [1] and in assay [2] were 100 to 500 nM and 1000 to 2000 nM, respectively.

`COC(=O)N1C[C@@H](OC)C[C@H]1C(=O)N(c1cccc(F)c1)[C@H](C(=O)NC1CC(F)(F)C1)c1ccccc1Cl` [Compound 63]: the IC50 in assay [1] is not above 100 nM; in assay [2], 1000 to 2000 nM.

On to `O=C(NC1CC(F)(F)C1)C(c1ccccc1Cl)N(C(=O)Cc1ccncc1)c1cccc(F)c1` (centres unmarked) [Compound 64], for which the IC50 in assay [1] is not above 100 nM; in assay [2], 100 to 500 nM.

With `N#Cc1ccnc(N2c3ccccc3C[C@H]2C(=O)N(c2cc(F)cc(F)c2)C(C(=O)NC2CC(F)(F)C2)c2ccccc2Cl)c1` (stereo partly drawn) [Compound 119, (2S)—N-(1-(2-chlorophenyl)-2-((3,3-difluorocyclobutyl)amino)-2-oxoethyl)-1-(4-cyanopyridin-2-yl)-N-(3,5-difluorophenyl)indoline-2-carboxamide], the IC50 in assay [1] and in assay [2] was 100 to 500 nM in each case.

These data come from patent publication US20160304556A1, “[…] ACTIVE COMPOUNDS AND THEIR METHODS OF USE” (AGIOS PHARMACEUTICALS, INC, priority 2012, published 2016).
